Values of other authors in patent US12247053B2 (priority 2018, dated 2025).

Test system: 2009 swine flu influenza A(H1N1)

SMILES | susceptibility of the virus
NC12CC3CC(CC(C3)C1)C2 [amantadine] | resistant
CCOC(=O)C1=C[C@@H](OC(CC)CC)[C@H](NC(C)=O)[C@@H](N)C1 [oseltamivir] | susceptible
CC(N)C12CC3CC(CC(C3)C1)C2 (stereo not shown) [rimantadine] | resistant
CC(=O)N[C@H]1[C@H]([C@H](O)[C@H](O)CO)OC(C(=O)O)=C[C@@H]1N=C(N)N [zanamivir] | susceptible
